Measurements published in patent US5120720A, “Preparation of lipophile:hydroxypropylcyclodextrin complexes by a method using co-solubilizers” (priority 1990, dated 1992).
Where two headings read alike, the source gives them in different places.

Legend:
[1] = type: physicochemical
Text: The methods of preparation herein disclosed were also used successfully with the ethanol-soluble peptides such as gramicidin S, complexed with hydroxypropyl-β-cyclodextrin (Example 4). It was also used to prepare the gramicidin S:hydroxypropyl-α-cyclodextrin preparation (Example 5) and gramicidin S:hydroxypropyl-γ-cyclodextrin preparation (Example 6).
The processes disclosed herein differ substantially from those described by Szejtli (p. 268) for the preparation of crystalline β-cyclodextrin:vitamin D3 complexes, which were prepared using organic solvents. In this regard, the procedure described by Szejtli consists of the co-dissolution of components, i.e., of crystalline β-cyclodextrin and vitamin D3, at 50° C. in 60-65% aqueous ethanol, followed by cooling of the clear solution during which crystalline complex of the vitamin precipitates. Moreover, attempts to use Szejtli's procedure for the above complexes were not successful, since concentration of ethanol in the range 60-65% solubilized steroids only incompletely and no precipitation occurred.

[2] = read-out: Stability constant of the complex with α-cyclodextrin, cited from earlier work
[3] = read-out: Stability constant of the complex with β-cyclodextrin, cited from earlier work
[4] = Solubility of freeze-dried complexes or residues in water, and stability of the solutions; type: physicochemical; conditions: attempted complex preparation
Protocol: For a number of applications, complexes in powdery form as prepared by freeze-drying (lyophilizing), are preferable to the glassy residues such as are obtained by the above discussed procedure. Therefore, to obtain complexes in a powdery form, the glassy preparations were dissolved in water (final concentration of hydroxypropyl-β-cyclodextrin was about 10% W/W), sterilized by ultrafiltration and freeze-dried. All of the following exemplary preparations of steroids so prepared, dissolved fully. Moreover, the complexes so obtained were again amorphous and could be tabletted by direct compression.
The solubility of freeze-dried complexes such as those provided below was invariably high. For example, all the complexes of steroids in Examples 1-3 dissolved smoothly in water up to 40% W/W concentration, and these solutions were stable for at least 24 hours.
[…] Full dissolution occurred in five minutes; the solution was then filtered through a membrane filter (pore size 0.22 μm). The filtrate was evaporated at room temperature in vacuo to dryness leaving a glassy residue. […] The yield was 85%.

[5] = β-cyclodextrin, aqueous sodium hydroxide then phosphoric acid (U.S. Pat. No. 4,883,785, Example 3); cited from earlier work
[6] = source (d) W. Hirsch et al. 1987
[7] = source (a) M. Suzuki et al. 1988
[8] = source (b) Y. Matsui and K. Mochida 1979

| Molecule | Kd [2, 7] | Kd [2, 8] | Kd [3, 7] | Kd [3, 8] | further results |
| --- | --- | --- | --- | --- | --- |
| OC[C@H]1O[C@@H]2O[C@H]3[C@H](O)[C@@H](O)[C@@H](O[C@H]4[C@H](O)[C@@H](O)[C@@H](O[C@H]5[C@H](O)[C@@H](O)[C@@H](O[C@H]6[C@H](O)[C@@H](O)[C@@H](O[C@H]7[C@H](O)[C@@H](O)[C@@H](O[C@H]8[C@H](O)[C@@H](O)[C@@H](O[C@H]1[C@H](O)[C@H]2O)O[C@@H]8CO)O[C@@H]7CO)O[C@@H]6CO)O[C@@H]5CO)O[C@@H]4CO)O[C@@H]3CO [β-cyclodextrin] |  |  |  |  | Solubility in 75% ethanol [1]: low solubility |
| N [ammonia] |  |  |  |  | Kd [2, 6]: 0.0164 mM; Kd [3, 6]: 0.0667 mM |
| CCCCCO [n-pentanol] | 3.33 mM | 3.1 mM | 11.5 mM | 15.9 mM |  |
| gramicidin D |  |  |  |  | Solubility in water of solid residue after evaporation of ethanol 95% solution [4]: insoluble in water; Dissolution in ethanol 75% ([1]; ethanol 75%): did not dissolve; Dissolution in ethanol 95% ([1]; ethanol 95%): dissolved |
| CC(C)(C)O [t-butanol] |  |  | 23.8 mM | 20.8 mM |  |
| CC(C)(C)CO [2,2-dimethyl-1-propanol] | 33.3 mM |  | 1.52 mM | 1.72 mM |  |
| C[C@@H]1[C@H](O)[C@@H](C)/C=C/C=C/C=C/C=C/C=C/C=C/C=C/[C@H](O[C@@H]2O[C@H](C)[C@@H](O)[C@H](N)[C@@H]2O)C[C@@H]2O[C@](O)(C[C@@H](O)C[C@@H](O)[C@H](O)CC[C@@H](O)C[C@@H](O)CC(=O)O[C@H]1C)C[C@H](O)[C@H]2C(=O)O [amphotericin B] |  |  |  |  | Starting drug solubilized [5]: about 1% |
| CCCO [n-propanol] | 50 mM | 43.5 mM |  |  |  |
| CCCCO [n-butanol] | 9.09 mM | 11.2 mM |  |  |  |
